Article PMC11191317, “PNSC928, a plant-derived compound, specifically disrupts CtBP2-p300 interaction and reduces inflammation in mice with acute respiratory distress syndrome” (Biology Direct, 2024)

What was measured:
[1] = test system: NF-κB signaling pathway; experiment: Immunoblots of NF-κB signaling pathway molecules in LPS-treated MPAEpiC cells; format: cell-based, mouse; conditions: LPS 200 ng/mL + PNSC928 0, 23.6, and 47.2 µM, 6 h
Procedure: For LPS treatment, different knockdown (KD) cell lines—Control^KD, CtBP2^KD, p300^KD, and p65^KD, all derived from MPAEpiC—were seeded in 12-well plates and cultured at 37 °C until reaching 80% confluence. The cells were then treated with 200 ng/mL of LPS for 6 h, washed three times with PBS, and subjected to the required experiments. For experiments involving inhibitors of CtBP2, p300, and NF-κB, as well as the compound PNSC928, MPAEpiC, RAW264.7, FL83B, TKPTS, and HL-1 cells were seeded in 12-well plates and cultured at 37 °C to reach 80% confluence. Cells were then cotreated with 200 ng/mL LPS along with varying concentrations of the following chemicals: MTOB (0, 5, 10, or 20 mM), NSC95397 (0, 10, 20, or 40 µM), C646 (0, 3, 6, or 12 µM), A-485 (0, 5, 10, or 20 nM), TPCA1 (0, 150, 300, or 600 nM), BOT64 (0, 1, 2, or 4 µM), or PNSC928 (0, 11.8, 23.6, or 47.2 µM). After 6 h of treatment, cells were washed three times with PBS before proceeding with further experiments.
Cellular and mouse lung tissue lysates were prepared using the RIPA buffer (Thermo Fisher; #PI89900) supplemented with 1 × complete protease inhibitor cocktail (Thermo Fisher; #87,785). Following a 10-minute centrifugation at 13,000 g, proteins (50 µg) from the cleared lysate were resolved via 10% SDS-PAGE. These separated proteins were electroblotted onto PVDF membranes (Thermo Fisher; #88,585). […]

[2] = test system: RAW264.7 cells; experiment: RT-qPCR of CtBP2/p300/NF-κB target genes in LPS-treated RAW264.7 cells (PNSC928); format: cell-based, mouse; conditions: LPS + PNSC928 23.6 and 47.2 µM, 6 h
Procedure: For LPS treatment, different knockdown (KD) cell lines—Control^KD, CtBP2^KD, p300^KD, and p65^KD, all derived from MPAEpiC—were seeded in 12-well plates and cultured at 37 °C until reaching 80% confluence. The cells were then treated with 200 ng/mL of LPS for 6 h, washed three times with PBS, and subjected to the required experiments. For experiments involving inhibitors of CtBP2, p300, and NF-κB, as well as the compound PNSC928, MPAEpiC, RAW264.7, FL83B, TKPTS, and HL-1 cells were seeded in 12-well plates and cultured at 37 °C to reach 80% confluence. […]
RNA was isolated from both cultured cells and mouse lung tissues utilizing the TRIzol Reagent (Invitrogen; Shanghai, China; #15,596,018) in adherence to the manufacturer’s protocol. […] Gene expression quantification was carried out using the SYBR GreenER qPCR SuperMix Universal (Thermo Fisher; #1176202K) in combination with the specific primers delineated in Table S3. […]
Fig. 5 Determination of PNSC928 cytotoxicity and evaluation of PNSC928 effects on the expression levels of CtBP2/p300/NF-κB target genes. […] Cell viability was assessed every 24 h for 5 days. […] Subsequently, RNA isolation and RT-qPCR analysis were performed to quantify mRNA levels of various genes. […]

CC(=CCCC1=CCC(C2COC(=O)C2)OC1O)CCC1=C(C)CCCC1(C)C (stereo not drawn) [PNSC928]
Effect on LPS-induced pIKKα, pIκBα, IκBα levels and nuclear translocation of p65 and p50 [1]: did not alter the effects of LPS
Expression levels of CDH1, CDKN1A, CDKN2A, CHRD, PAX6, BAX, NOD2, CCL2, CXCL10, CXCL12, MMP1, STAT1, MIP2, CCR5, GM-CSF, VEGF, COX2, and iNOS [2]: did not alter the expression levels
LPS-induced IL-1B, IL-6, IL-15, IL-18, TNFA, and IFNG expressions [2]: dose-dependent reversal
